Test system: MDA-MB-231 cells
Test: RPPA (reverse phase protein array)
Assay type: cell-based, human
Conditions: 1000nM
Method: RPPA analysis was performed by MD Anderson Cancer Center RPPA core facility.
Examination of the Molecular Signaling Events) and/or Downstream Pathways Responsible for the Migration and Invasion Effects Observed by Exemplary Compound Treatment. To pinpoint these observations to a molecular signaling event or specific downstream pathway, reverse phase protein array (RPPA) analysis was performed (Table 4).

CNC(=O)c1ccc(Nc2ncc(C(F)(F)F)c(NCc3nccnc3N(C)S(C)(=O)=O)n2)cc1 [Defactinib, defactinib, reference compound]
rel. Protein level, 4E-BP1: 115.6% | rel. Protein level, 4E-BP1_pS65: 91.8% | rel. Protein level, 14-3-3-beta: 98.4% | rel. Protein level, 14-3-3-zeta: 102.9% | rel. Protein level, 53BP1: 111.6% | rel. Protein level, A-Raf: 108.3% | rel. Protein level, ACC1: 95.9% | rel. Protein level, ACC_pS79: 102.5% | rel. Protein level, ADAR1: 111.8% | rel. Protein level, AMPK-a2_pS345: 98.1% | rel. Protein level, AMPKa: 105.6% | rel. Protein level, AMPKa_pT172: 101.3% | rel. Protein level, AR: 103.1% | rel. Protein level, ARID1A: 100.8% | rel. Protein level, ATM: 93.9% | rel. Protein level, ATM_pS1981: 99.4% | rel. Protein level, ATR_pS428: 93.7% | rel. Protein level, Akt: 99.2% | rel. Protein level, Akt_pS473: 79.3% | rel. Protein level, Akt_pT308: 97.2% | rel. Protein level, Annexin-I: 96.1% | rel. Protein level, Annexin-VII: 107.8% | rel. Protein level, Atg3: 98.1% | rel. Protein level, Atg7: 99.5% | rel. Protein level, Aurora-B: 91.9% | rel. Protein level, Axl: 76.0% | rel. Protein level, B7-H4: 102.6% | rel. Protein level, B-Raf: 104.8% | rel. Protein level, B-Raf_pS445: 108.8% | rel. Protein level, BAP1: 83.5% | rel. Protein level, BRD4: 108.7% | rel. Protein level, Bad_pS112: 103.3% | rel. Protein level, Bak: 103.1% | rel. Protein level, Bax: 106.4% | rel. Protein level, Bc1-xL: 100.4% | rel. Protein level, Bc12: 112.9% | rel. Protein level, Beclin_l: 99.2% | rel. Protein level, BiP-GRP78: 103.7% | rel. Protein level, Bid: 109.2% | rel. Protein level, Bim: 105.6% | rel. Protein level, C-Raf: 96.5% | rel. Protein level, C-Raf_pS338: 98.1% | rel. Protein level, CD4: 103.7% | rel. Protein level, CD20: 96.8% | rel. Protein level, CD29: 101.9% | rel. Protein level, CD31: 100.7% | rel. Protein level, CD44: 100.5% | rel. Protein level, CD45: 117.4% | rel. Protein level, CD49b: 105.5% | rel. Protein level, CD134: 100.5% | rel. Protein level, CDK1_pT14: 84.4% | rel. Protein level, COG3: 105.5% | rel. Protein level, Caspase-3: 108.3% | rel. Protein level, Caspase-7-cleaved-: 107.0% | rel. Protein level, Caspase-8: 97.2% | rel. Protein level, Caveolin-1: 135.0% | rel. Protein level, Chk2: 97.0% | rel. Protein level, Chk2_pT68: 106.0% | rel. Protein level, Chkl: 84.1% | rel. Protein level, Chkl_pS296: 98.2% | rel. Protein level, Claudin-7: 97.3% | rel. Protein level, Collagen-VI: 102.5% | rel. Protein level, Connexin-43: 86.5% | rel. Protein level, Cox2: 144.9% | rel. Protein level, Cox-IV: 101.8% | rel. Protein level, Creb: 103.7% | rel. Protein level, Cyclin-B1: 86.8% | rel. Protein level, Cyclin-D1: 100.5% | rel. Protein level, Cyclin-D3: 97.2% | rel. Protein level, Cyclin-E1: 101.8% | rel. Protein level, Cyclophilin-F: 85.5% | rel. Protein level, D-a-Tubulin: 98.2% | rel. Protein level, DJ1: 105.3% | rel. Protein level, DM-Histone-H3: 106.7% | rel. Protein level, DM-K9-Histone-H3: 108.9% | rel. Protein level, DUSP4: 135.6% | rel. Protein level, E2F1: 98.4% | rel. Protein level, E-Cadherin: 122.5% | rel. Protein level, EGFR: 93.7% | rel. Protein level, EGFR_pY1173: 100.8% | rel. Protein level, EMA: 102.2% | rel. Protein level, ENY2: 95.1% | rel. Protein level, ER: 99.6% | rel. Protein level, ER-a_pS118: 98.5% | rel. Protein level, ERCC1: 85.6% | rel. Protein level, ERCC5: 110.3% | rel. Protein level, Elk1_pS383: 97.3% | rel. Protein level, Ets-1: 90.6% | rel. Protein level, FAK: 116.1% | rel. Protein level, FAK_pY397: 93.5% | rel. Protein level, FASN: 98.1% | rel. Protein level, FOXM1: 90.3% | rel. Protein level, Fibronectin: 89.9% | rel. Protein level, FoxO3a: 104.9% | rel. Protein level, FoxO3a_pS318_S321: 99.0% | rel. Protein level, G6PD: 102.3% | rel. Protein level, GAPDH: 104.0% | rel. Protein level, GATA3: 91.1% | rel. Protein level, GATA-6: 99.4% | rel. Protein level, GCLM: 97.0% | rel. Protein level, GCN5L2: 94.5% | rel. Protein level, GSK-3a-b: 101.2% | rel. Protein level, GSK-3a-b_pS21_S9: 98.8% | rel. Protein level, Gab2: 94.6% | rel. Protein level, Glutamate-D1-2: 100.6% | rel. Protein level, Glutaminase: 100.6% | rel. Protein level, Granzyme-B: 102.7% | rel. Protein level, Gys: 107.0% | rel. Protein level, Gys_pS641: 106.2% | rel. Protein level, H2AX_pS140: 101.9% | rel. Protein level, HER2: 91.7% | rel. Protein level, HER2_pY1248: 101.5% | rel. Protein level, HER3: 98.5% | rel. Protein level, HER3_pY1289: 98.2% | rel. Protein level, HES1: 97.2% | rel. Protein level, HLA-DR-DP-DQ-DX: 98.9% | rel. Protein level, HSP27: 101.4% | rel. Protein level, HSP27_pS82: 114.2% | rel. Protein level, HSP70: 103.2% | rel. Protein level, Heregulin: 109.2% | rel. Protein level, Hexokinase-II: 98.0% | rel. Protein level, Hif-l-alpha: 116.1% | rel. Protein level, Histone-H3: 123.3% | rel. Protein level, IGF1R_pY1135_Y1136: 98.7% | rel. Protein level, IGFBP2: 90.9% | rel. Protein level, IGFRb: 99.7% | rel. Protein level, INPP4b: 99.6% | rel. Protein level, IR-b: 110.0% | rel. Protein level, IRF-1: 104.1% | rel. Protein level, IRS1: 96.1% | rel. Protein level, JNK2: 111.4% | rel. Protein level, JNK_pT183_Y185: 99.7% | rel. Protein level, Jagged1: 107.3% | rel. Protein level, Jak2: 104.3% | rel. Protein level, LC3A-B: 102.5% | rel. Protein level, LDHA: 121.2% | rel. Protein level, LRP6_pS1490: 109.2% | rel. Protein level, Lck: 101.9% | rel. Protein level, MAPK_pT202-Y204: 98.0% | rel. Protein level, MCT4: 119.5% | rel. Protein level, MDM2_pS166: 92.3% | rel. Protein level, MEK1: 110.2% | rel. Protein level, MEK1_p_S217-S221: 98.0% | rel. Protein level, MERIT40_pS29: 91.1% | rel. Protein level, MIF: 118.6% | rel. Protein level, MIG6: 133.9% | rel. Protein level, MMP2: 103.4% | rel. Protein level, MMP14-[EP1264Y]: 138.0% | rel. Protein level, MMP-14: 139.1% | rel. Protein level, MSH6: 99.2% | rel. Protein level, MSI2: 100.7% | rel. Protein level, Mcl-1: 101.9%

Reference: patent US20200038513A1, “MODULATORS OF FAK PROTEOLYSIS AND ASSOCIATED METHODS OF USE” (ARVINAS OPERATIONS, INC., priority 2018, published 2020)
